In US20090042987A1, “TREATMENT OF NEUROPATHIC PAIN” (priority 2007, published 2009):
Entries after “also recorded” stand apart in the source; their conditions may differ.

Legend:
STZ-diabetic rats [1] = test: von Frey paw withdrawal thresholds, STZ-diabetic rats given multiple dosing regimens (washout protocol), Example 1; format: in vivo, rat
Experimental: Experimental Animals Ethical approval for this study was obtained from the Animal Experimentation Ethics Committee of The University of Queensland. Adult male Sprague-Dawley (SD) rats (222±4 g) were used for this study. Rats were housed in a temperature controlled room (21+2.0 C) with a 12/12 hour light/dark cycle. Food and water were available ad libitum. Initiation of drug administration occurred at 8-11 weeks post-STZ administration for rats in Experiment 1 (PCT-001) and at 10-12 weeks post-STZ administration for rats in Experiment 2 (PCT-007).
Test Article Tranilast was supplied by the Sponsor and stored at −4° C. until use. Gabapentin (100 mg/kg, dissolved in water for injection) was utilized as the positive control for this study.
Test Article and Vehicle Preparation Test article formulations were prepared freshly on the day of administration by weighing the appropriate amount of bulk powder and suspending it in the required volume of vehicle. Carboxymethyl cellulose ((CMC) 0.5% in water for injection) was utilized as the vehicle for this study.
Test Article Administration. […] The maximum oral gavage volume administered in this study was […]. 4.4
STZ-Diabetic Rat Model of Painful Diabetic Neuropathy. Painful diabetic neuropathy is a common long-term complication of diabetes in humans that develops as a result of a sustained biochemical nerve injury. […] Following the induction of diabetes with intravenous STZ at 70-80 mg/kg, it generally takes 6-8 wks for tactile allodynia, the defining symptom of PDN, to fully develop in both rat hindpaws.
Induction of STZ-Diabetes in Rats. On day 0, rats were anaesthetized with 3% isoflurane:97% O2 and a short polyethylene cannula (0.5 mm ID, 0.8 mm OD) was inserted into the jugular vein to facilitate the intravenous (i.v.) administration of a single dose of streptozotocin (STZ: 70-80 mg/kg). After STZ injection, the cannula was removed and the jugular vein was tied off and the wound was closed. Rats received subcutaneous benzylpenicillin (60 mg) prior to surgery to prevent infection and were kept warm during surgical recovery. Rats were housed singly prior to further experimentation and were monitored daily from the time of STZ administration with regard to general health and well-being.
Von Frey Assessment of Paw Withdrawal Thresholds. Calibrated von Frey filaments were used to determine the lowest mechanical threshold required to evoke a brisk paw withdrawal reflex in the rat hindpaws. Briefly, rats were transferred individually to wire mesh testing cages (20 cm×20 cm×20 cm) and allowed to acclimatize for approximately 10-20 min prior to von Frey testing. Commencing with the von Frey filament that produced the 6 g force, the filament was applied to the plantar surface of the hindpaw until the filament buckled slightly. Absence of a response after 3 s prompted use of the next filament of increasing weight. A withdrawal response within 3 s prompted use of the next filament of decreasing weight. Filaments used produced buckling weights of 2, 4, 6, 8, 10, 12, 14, 16, 18 and 20 g. […] Tactile allodynia is regarded as being fully developed when von Frey PWTs in the injured hindpaws are <6 g.
Restoring von-Frey PWTs in the hindpaws from <6 g to pre-STZ surgery levels (12±2 g) is the treatment goal representing full reversal of tactile allodynia. If drug treatment increases PWTs above pre-surgical baseline values (i.e. >12±2 g), such a response is classified as antinociception. Before administration of STZ, baseline von Frey measurements were assessed. Following STZ administration, baseline PWTs were assessed in the hindpaws at week 8-11 to confirm the development of diabetes-induced tactile allodynia. […]

STZ-diabetic rats [2] = test: Behavioural observations / adverse effects in STZ-diabetic rats; format: in vivo, rat; details: tranilast 30-400 mg/kg oral, 7 consecutive twice-daily bolus doses
Description: Behavioural Observations. STZ-diabetic rats were monitored for visible and audible signs of distress throughout the testing period. The visible signs of distress included behavioural changes such as complete immobility, movement with abnormal gait, agitation, aggression, wet dog shakes, excessive grooming, restlessness with constant movement, repeated sudden movements or staring.

SMILES: COc1ccc(/C=C/C(=O)Nc2ccccc2C(=O)O)cc1OC [Tranilast, 2-[[3-(3,4-dimethoxyphenyl)-1-oxo-2-propenyl]amino]benzoic acid]
- Mean (±SEM) PWT at the mean time of peak response (STZ-diabetic rats [1]; tranilast 300 mg/kg oral, 7th twice-daily dose, 1.5 h post-dosing): 9.8 (±1.1) g
- Time of peak anti-allodynia post-dosing (STZ-diabetic rats [1]; tranilast 300 mg/kg oral, 7th twice-daily dose, multiple dosing regimens): 1 to 1.5 h
- Mean (±SEM) PWT pre-dose (STZ-diabetic rats [1]; tranilast 300 mg/kg oral, 7th twice-daily dose, pre-dose): 5.1 (±0.4) g
- Anti-allodynia in the hindpaws (STZ-diabetic rats [1]; tranilast 30, 100, 200, 300 mg/kg oral, 7 consecutive twice-daily doses, multiple dosing regimens): significant anti-allodynia was produced only by the 300 mg/kg dosing regimen
- Relief of tactile allodynia, dose dependence (STZ-diabetic rats [1]; tranilast 100-300 mg/kg oral, 7 consecutive twice-daily doses, up to 5 dosing regimens, 2-3 day washout): dose-dependent relief of tactile allodynia
- Adverse (behavioural) effects (STZ-diabetic rats [2]): no discernible adverse effects; also recorded: did not produce discernible adverse behavioural effects
